In PubChem BioAssay (NCI):
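In this assay, cells in 96-well plates receive the compound at five concentrations for 48 hours. Endpoints are linearly interpolated between the surrounding concentrations. Abbreviation: GI50, concentration required for 50% inhibition of growth. At the TGI there is no net growth.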

Columns and labels:
Experiment in all cases: growth of human tumour cells (NCI), 48 h
[1] = tested on: 786-0 renal
[2] = tested on: A498 renal
[3] = tested on: A549 NSCLC
[4] = tested on: ACHN renal
[5] = tested on: BT-549 breast
[6] = tested on: CAKI-1 renal
[7] = tested on: CCRF-CEM leukemia
[8] = tested on: COLO 205 colon
[9] = tested on: DU-145 prostate
[10] = tested on: EKVX NSCLC
[11] = tested on: HCC-2998 colon
[12] = tested on: HCT-116 colon
[13] = tested on: HCT-15 colon
[14] = tested on: HL-60(TB) leukemia
[15] = tested on: HOP-92 NSCLC
[16] = tested on: HS 578T breast
[17] = tested on: HT29 colon
[18] = tested on: IGROV1 ovarian
[19] = tested on: K-562 leukemia
[20] = tested on: KM12 colon
[21] = tested on: LOX IMVI melanoma
[22] = tested on: M14 melanoma
[23] = tested on: MALME-3M melanoma
[24] = tested on: MCF7 breast
[25] = tested on: MDA-MB-435
[26] = tested on: MOLT-4 leukemia
[27] = tested on: NCI-H226 lung
[28] = tested on: NCI-H23 lung
[29] = tested on: NCI-H460 lung
[30] = tested on: NCI-H522 lung
[31] = tested on: NCI/ADR-RES ovarian
[32] = tested on: OVCAR-3 ovarian
[33] = tested on: OVCAR-4 ovarian
[34] = tested on: OVCAR-5 ovarian
[35] = tested on: OVCAR-8 ovarian
[36] = tested on: RPMI-8226 leukemia
[37] = tested on: RXF 393 renal
[38] = tested on: SF-295 CNS
[39] = tested on: SK-MEL-28 melanoma
[40] = tested on: SK-MEL-5 melanoma
[41] = tested on: SK-OV-3 ovarian
[42] = tested on: SN12C renal
[43] = tested on: SNB-19 CNS
[44] = tested on: SR leukemia
[45] = tested on: SW-620 colon
[46] = tested on: TK-10 renal
[47] = tested on: U251 CNS
[48] = tested on: UACC-257 melanoma
[49] = tested on: UACC-62 melanoma
[50] = tested on: UO-31 renal
[51] = tested on: HOP-62 NSCLC
[52] = tested on: PC-3 prostate
[53] = tested on: SF-268 CNS
[54] = tested on: SK-MEL-2 melanoma
[55] = tested on: SNB-75 CNS
[56] = tested on: T-47D breast
[57] = tested on: SF-539 CNS

Compound: N#C[C@H]1C(=O)C(c2nc3ccccc3[nH]2)S[C@H]1c1ccccc1 (stereo partly specified)
- TGI [1]: 54.2 µM
- TGI [2]: 79 µM
- TGI [3]: > 100 µM
- TGI [4]: 57.6 µM
- TGI [5]: 92.4 µM
- TGI [6]: > 100 µM
- TGI [7]: > 100 µM
- TGI [8]: > 100 µM
- TGI [9]: > 100 µM
- TGI [10]: > 100 µM
- TGI [11]: > 100 µM
- TGI [12]: > 100 µM
- TGI [13]: > 100 µM
- TGI [14]: > 100 µM
- TGI [15]: 67.3 µM
- TGI [16]: > 100 µM
- TGI [17]: > 100 µM
- TGI [18]: > 100 µM
- TGI [19]: > 100 µM
- TGI [20]: > 100 µM
- TGI [21]: > 100 µM
- TGI [22]: > 100 µM
- TGI [23]: > 100 µM
- TGI [24]: > 100 µM
- TGI [25]: 87.8 µM
- TGI [26]: > 100 µM
- TGI [27]: > 100 µM
- TGI [28]: 76.1 µM
- TGI [29]: > 100 µM
- TGI [30]: 52.6 µM
- TGI [31]: > 100 µM
- TGI [32]: > 100 µM
- TGI [33]: > 100 µM
- TGI [34]: > 100 µM
- TGI [35]: > 100 µM
- TGI [36]: 89.7 µM
- TGI [37]: 67.8 µM
- TGI [38]: 86.2 µM
- TGI [39]: > 100 µM
- TGI [40]: > 100 µM
- TGI [41]: > 100 µM
- TGI [42]: 91.3 µM
- TGI [43]: > 100 µM
- TGI [44]: > 100 µM
- TGI [45]: > 100 µM
- TGI [46]: > 100 µM
- TGI [47]: 57.2 µM
- TGI [48]: > 100 µM
- TGI [49]: 36.7 µM
- TGI [50]: 78.8 µM

Compound: COc1ccc(C2C3=CONC3CC3CCCCC32)cc1 (stereo unspecified)
- TGI [1]: > 100 µM
- TGI [3]: > 100 µM
- TGI [4]: > 100 µM
- TGI [5]: > 100 µM
- TGI [6]: > 100 µM
- TGI [7]: > 100 µM
- TGI [11]: 47.3 µM
- TGI [12]: > 100 µM
- TGI [14]: > 100 µM
- TGI [51]: > 100 µM
- TGI [17]: > 100 µM
- TGI [18]: > 100 µM
- TGI [19]: > 100 µM
- TGI [21]: > 100 µM
- TGI [22]: > 100 µM
- TGI [23]: > 100 µM
- TGI [24]: > 100 µM
- TGI [25]: > 100 µM
- TGI [26]: > 100 µM
- TGI [27]: > 100 µM
- TGI [28]: > 100 µM
- TGI [29]: > 100 µM
- TGI [30]: > 100 µM
- TGI [32]: > 100 µM
- TGI [33]: > 100 µM
- TGI [34]: > 100 µM
- TGI [35]: > 100 µM
- TGI [52]: > 100 µM
- TGI [36]: > 100 µM
- TGI [53]: > 100 µM
- TGI [54]: > 100 µM
- TGI [39]: > 100 µM
- TGI [40]: > 100 µM
- TGI [43]: > 100 µM
- TGI [55]: > 100 µM
- TGI [44]: > 100 µM
- TGI [45]: > 100 µM
- TGI [56]: > 100 µM
- TGI [46]: > 100 µM
- TGI [47]: > 100 µM
- TGI [48]: > 100 µM
- TGI [49]: > 100 µM
- TGI [50]: > 100 µM

Compound: C=C1C(=O)O[C@H]2[C@H]1CC/C(COC(=O)/C=C/C(=O)OC/C1=C/CC[C@@]3(C)O[C@H]3[C@H]3OC(=O)C(=C)[C@@H]3CC1)=C\CC[C@@]1(C)O[C@@H]21
- GI50 [2]: > 100 µM
- TGI [2]: > 100 µM
- GI50 [3]: > 100 µM
- TGI [3]: > 100 µM
- GI50 [5]: 1.58 µM
- TGI [5]: 4.41 µM
- GI50 [6]: 1.08 µM
- TGI [6]: 3.43 µM
- GI50 [8]: 0.351 µM
- TGI [8]: 1.24 µM
- GI50 [10]: 2.22 µM
- TGI [10]: > 100 µM
- GI50 [12]: 0.253 µM
- TGI [12]: 0.756 µM
- GI50 [51]: 5.43 µM
- TGI [51]: > 100 µM
- GI50 [15]: 0.549 µM
- TGI [15]: 1.8 µM
- GI50 [16]: 3.22 µM
- TGI [16]: > 100 µM
- GI50 [20]: 5.19 µM
- TGI [20]: > 100 µM
- GI50 [21]: 1.07 µM
- TGI [21]: 2.4 µM
- GI50 [22]: 1.26 µM
- TGI [22]: 3.89 µM
- GI50 [26]: 0.307 µM
- TGI [26]: 1.4 µM
- GI50 [27]: 1.42 µM
- TGI [27]: 3.11 µM
- GI50 [29]: 5.2 µM
- TGI [29]: > 100 µM
- GI50 [30]: 0.171 µM
- TGI [30]: 0.374 µM
- GI50 [35]: 1.53 µM
- TGI [35]: 3.05 µM
- GI50 [52]: 3.02 µM
- TGI [52]: > 100 µM
- GI50 [36]: 0.868 µM
- TGI [36]: 4 µM
- GI50 [37]: 0.297 µM
- TGI [37]: 0.713 µM
- GI50 [53]: 3.19 µM
- TGI [53]: > 100 µM
- GI50 [38]: 6.77 µM
- TGI [38]: > 100 µM
- GI50 [57]: 2.5 µM
- TGI [57]: 7.86 µM
- GI50 [39]: 1.56 µM
- TGI [39]: 4.13 µM
- GI50 [40]: 4.34 µM
- TGI [40]: > 100 µM
- GI50 [41]: > 100 µM
- TGI [41]: > 100 µM
- GI50 [42]: 1.49 µM
- TGI [42]: 4.04 µM
- GI50 [43]: 5.49 µM
- TGI [43]: > 100 µM
- GI50 [55]: 3.47 µM
- TGI [55]: 66.9 µM
- GI50 [45]: 0.338 µM
- TGI [45]: 1.11 µM
- GI50 [47]: 2.82 µM
- TGI [47]: 10.8 µM
- GI50 [48]: 1.64 µM
- TGI [48]: 3.14 µM
- GI50 [49]: 1.21 µM
- TGI [49]: 2.68 µM

Compound: c1ccc2c(c1)ccc1c3ccccc3c(NCCCCN3CCCCC3)cc21
- GI50 [3]: 3.1 µM
- TGI [3]: > 100 µM
- GI50 [11]: 1.75 µM
- TGI [11]: 3.36 µM
- GI50 [17]: 3.5 µM
- TGI [17]: > 100 µM
- GI50 [20]: 1.75 µM
- TGI [20]: 3.25 µM
- GI50 [34]: 1.69 µM
- TGI [34]: 3.2 µM
